Assay results from ChEMBL document CHEMBL1147386, “Pantherinine, a cytotoxic aromatic alkaloid, and 7-deazainosine from the ascidian Aplidium pantherinum” (1993).
Converted amounts (≈) assume the structure as drawn.

System: P388
Experiment: Cytotoxicity against mouse P388 cells
Type: functional

Row | SMILES | Activity | EC50 (read-out: ED50 (the source's name))
1 | Nc1ncnc2c1ccn2[C@@H]1O[C@H](CO)[C@@H](O)[C@H]1O | Toxic | 
2 | NC1=Cc2nc3ccc(Br)cc3c3ccnc(c23)C1=O [PANTHERININE] |  | 4.5 µg/mL (≈ 13.8 µM)
